Results published in patent publication US10538567B2, “Compounds as peptidic trigonal GLP1/glucagon/GIP receptor agonists” (priority 2016, dated 2020).
In brackets after ≈: the same amount, converted by molar mass. Numbered stars: 1 amine (or outer) side, 2 acyl side, 3 side chain; on linkers, the order of the positions; unused ones are H or OH. Square brackets hold non-standard residues; d marks the D form. Side chains are listed from the residue outwards. Peptide text beside a SMILES is read from it. * marks the point of attachment. γGlu = O=C(O)[C@H](CCC(=O)[*:2])N[*:1]; Palmitoyl = CCCCCCCCCCCCCCCC(=O)*; Aib = CC(C)(N)C(=O)O

What was measured:
human glucagon receptor = biological target: T1, human glucagon receptor (Homo sapiens, UniProt P47871); experiment: cAMP response (HTRF) of HEK-293 cells stably expressing human glucagon receptor; assay type: cell-based; details: Table 8; read-out: EC50 hGlucagon R
T1 construct: expressed in transfected cells; host or cells: HEK-293
Method: cAMP content of cells was determined using a kit from Cisbio Corp. (cat. no. 62AM4PEJ) based on HTRF (Homogenous Time Resolved Fluorescence). For preparation, cells were split into T175 culture flasks and grown overnight to near confluency in medium (DMEM/10% FBS). Medium was then removed and cells washed with PBS lacking calcium and magnesium, followed by proteinase treatment with accutase (Sigma-Aldrich cat. no. A6964). Detached cells were washed and resuspended in assay buffer (1×HBSS; 20 mM HEPES, 0.1% BSA, 2 mM IBMX) and cellular density determined. They were then diluted to 400000 cells/ml and 25 μl-aliquots dispensed into the wells of 96-well plates. For measurement, 25 μl of test compound in assay buffer was added to the wells, followed by incubation for 30 minutes at room temperature.
Potencies of peptidic compounds at the GLP-1, glucagon and GIP receptors were determined by exposing cells expressing human glucagon receptor (hGlucagon R), human GIP receptor (hGIP-R) or human GLP-1 receptor (hGLP-1 R) to the listed compounds at increasing concentrations and measuring the formed cAMP as described in Methods.

[1] = Dynamic light scattering, hydrodynamic radius as surrogate for DLS interaction parameter kD; assay type: physicochemical; details: for Delta Rh [nm] = Rh5 − Rh1: DLS buffer system A pH 4.5; for Rh1 [nm] c = 1 mg/ml / Rh5 [nm] c = 5 mg/ml: hydrodynamic radius, DLS buffer system A pH 4.5, method C, 25° C.
From the text: A monochromatic and coherent light beam (laser) is used to illuminate the liquid sample. Dynamic Light Scattering (DLS) measures light scattered from particles (1 nm≤radius≤1 μm) that undergo Brownian motion. This motion is induced by collisions between the particles and solvent molecules that themselves are moving due to their thermal energy. The diffusional motion of the particles results in temporal fluctuations of the scattered light [Pecora, R. Dynamic Light Scattering: Applications of Photon Correlation Spectroscopy, Plenum Press, 1985].
The scattered light intensity fluctuations are recorded and transformed into an autocorrelation function. By fitting the autocorrelation curve to an exponential function, the diffusion coefficient D of the particles in solution can be derived. The diffusion coefficient is then used to calculate the hydrodynamic radius Rh (or apparent Stokes radius) through the Stokes-Einstein equation assuming spherical particles. This calculation is defined in ISO 13321 and ISO 22412 [International Standard ISO13321 Methods for Determination of Particle Size Distribution Part 8: Photon Correlation Spectroscopy, International Organisation for Standardisation (ISO) 1996; International Standard ISO22412 Particle Size Analysis—Dynamic Light Scattering, International Organisation for Standardisation (ISO) 2008].
For every peptide solution, the hydrodynamic radius Rh and the diffusion constant D (related via the Stokes-Einstein equation) were determined as an average over triplicates. Both parameters were determined at different peptide concentrations (e.g., Rh1 and D1: 1 mg/ml and Rh5 and D5: 5 mg/ml) in the same buffer system. The difference of these parameters between low and high peptide concentration is a surrogate for the DLS interaction parameter kD. Rh5<Rh1 or D5>D1 correspond to kD>0 and therefore to repulsive inter-particle interactions that result in improved physical (or colloidal) stability.
DLS buffer system A) 25 mM acetate buffer pH 4.5, 3 mg/mL L-Methionine, 2.7 mg/mL m-cresol, 18 mg/mL Glycerol 85%
DLS Method C: DLS measurements were performed on a DynaPro Plate Reader II (Wyatt Technology, Santa Barbara, Calif., US) and using one of the following black, low volume, and non-treated plates: polystyrene 384 assay plate with clear bottom (Corning, N.Y., US), polystyrene 96 assay plate with clear bottom (Corning, N.Y., US), cyclo olefin polymer (COP) 384 assay plate with clear bottom (Aurora, Mont., US), or polystyrene 384 assay plate with clear bottom (Greiner Bio-One, Germany). The data were processed with the Dynamics software provided by Wyatt Technology. Parameters of the particle size distribution were determined with non-negatively constrained least squares (NNLS) methods using DynaLS algorithms. Measurements were taken at 25° C. with an 830 nm laser light source at an angle of 158°.
The hydrodynamic radius Rh of peptide samples was determined at different peptide concentrations (1 mg/ml and 5 mg/ml) in DLS buffer system A using DLS method C as described in Methods as surrogate for the DLS interaction parameter kD.

[2] = Solubility assessment in solubility buffer system A; assay type: physicochemical; details: acetate buffer pH 4.5 with m-cresol; acetate buffer pH 4.5, 2.7 mg/ml m-cresol, target 10 mg/ml
Method: Prior to the solubility measurement of a peptide batch, its purity was determined through UPLC/MS.
Therefore solutions from solid samples were prepared in a buffer system with a concentration of 10 mg/mL compound based on the previously determined % purity:
Solubility buffer system A) Acetate Buffer pH 4.5, 100 mM sodium acetate trihydrate, 2.7 mg/ml m-Cresol
UPLC-UV was performed after 1 hour of gentle agitation from the supernatant, which was obtained after 15 min of centrifugation at 2500 RCF (relative centrifugal acceleration).
The solubility was determined by the comparison of the UV peak area of 2 μL-injection of a buffered sample diluted 1:10 with a standard curve of a reference peptide with known concentration. The different UV extinction coefficients of sample and reference peptide were calculated based on the different amino acid sequences and considered in the concentration calculation.
Peptide samples were prepared in solubility buffer system A and solubility was assessed as described in Methods.

T1 sequence (P47871 26-477): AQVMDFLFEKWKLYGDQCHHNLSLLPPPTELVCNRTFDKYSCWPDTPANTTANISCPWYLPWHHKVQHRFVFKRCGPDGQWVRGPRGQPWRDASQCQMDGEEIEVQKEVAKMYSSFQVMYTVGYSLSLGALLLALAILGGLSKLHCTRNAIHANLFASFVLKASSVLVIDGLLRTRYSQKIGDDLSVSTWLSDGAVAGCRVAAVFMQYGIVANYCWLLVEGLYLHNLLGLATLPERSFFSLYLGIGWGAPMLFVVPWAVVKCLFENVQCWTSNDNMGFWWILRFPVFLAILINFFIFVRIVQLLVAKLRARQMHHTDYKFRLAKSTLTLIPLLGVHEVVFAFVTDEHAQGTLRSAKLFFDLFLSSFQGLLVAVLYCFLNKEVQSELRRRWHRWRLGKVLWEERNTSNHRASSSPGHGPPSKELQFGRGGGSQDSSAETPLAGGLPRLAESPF

Row | EC50 (human glucagon receptor) [pM] | Delta Rh [nm] = Rh5 − Rh1 [1] [nm] | Rh1 [nm] c = 1 mg/ml [1] [nm] | Rh5 [nm] c = 5 mg/ml [1] [nm] | solubility at 1 h [2] [µg/mL] | Structure (SMILES)
1 | 2 | −0.4 | 3.0 | 2.6 | 9500 (≈ 1940 µM) | CCCCCCCCCCCCCCCC(=O)N[C@@H](CCC(=O)N[C@@H](CCC(=O)NCCCC[C@H](NC(=O)[C@H](CC(C)C)NC(=O)[C@H](CCCCN)NC(=O)[C@H](CO)NC(=O)[C@H](CC(C)C)NC(=O)[C@H](CC(=O)O)NC(=O)[C@H](CO)NC(=O)[C@@H](NC(=O)[C@H](Cc1ccccc1)NC(=O)[C@@H](NC(=O)CNC(=O)[C@H](Cc1c[nH]cn1)NC(=O)C(C)(C)NC(=O)[C@@H](N)Cc1c[nH]cn1)[C@@H](C)O)[C@@H](C)O)C(=O)N[C@@H](CCC(=O)O)C(=O)N[C@@H](CCC(=O)O)C(=O)N[C@@H](CCC(N)=O)C(=O)N[C@@H](CCCNC(=N)N)C(=O)N[C@@H](CCC(N)=O)C(=O)N[C@@H](CCCCN)C(=O)N[C@@H](CCC(=O)O)C(=O)N[C@@H](Cc1ccccc1)C(=O)N[C@H](C(=O)N[C@@H](CCC(=O)O)C(=O)N[C@@H](Cc1c[nH]c2ccccc12)C(=O)N[C@@H](CC(C)C)C(=O)N[C@@H](CCCCN)C(=O)N[C@@H](C)C(=O)NCC(=O)NCC(=O)N1CCC[C@H]1C(=O)N1CCC[C@H]1C(=O)N[C@@H](CO)C(=O)NC(C)(C)C(=O)N[C@@H](CCCCN)C(=O)N1CCC[C@H]1C(=O)N1CCC[C@H]1C(=O)N1CCC[C@H]1C(=O)N[C@@H](CCCCN)C(N)=O)[C@@H](C)CC)C(=O)O)C(=O)O [SEQ ID NO: 8, H-Aib-H-G-T-F-T-S-D-L-S-K-L-K[gGlu-gGlu-Palm]-E-E-Q-R-Q-K-E-F-I-E-W-L-K-A-G-G-P-P-S-Aib-K-P-P-P-K-NH2]
2 | 2.1 |  |  |  | > 9800 | CCCCCCCCCCCCCCCC(=O)N[C@@H](CCC(=O)N[C@@H](CCC(=O)NCCCC[C@H](NC(=O)[C@H](CC(C)C)NC(=O)[C@H](CCCCN)NC(=O)[C@H](CO)NC(=O)[C@H](CC(C)C)NC(=O)[C@H](CC(=O)O)NC(=O)[C@H](CO)NC(=O)[C@@H](NC(=O)[C@H](Cc1ccccc1)NC(=O)[C@@H](NC(=O)CNC(=O)[C@H](Cc1c[nH]cn1)NC(=O)C(C)(C)NC(=O)[C@@H](N)Cc1c[nH]cn1)[C@@H](C)O)[C@@H](C)O)C(=O)N[C@@H](CCC(=O)O)C(=O)N[C@@H](CCC(=O)O)C(=O)N[C@@H](CCC(N)=O)C(=O)N[C@@H](CCCNC(=N)N)C(=O)N[C@@H](CCC(N)=O)C(=O)NC(C)(C)C(=O)N[C@@H](CCC(=O)O)C(=O)N[C@@H](Cc1ccccc1)C(=O)N[C@H](C(=O)N[C@@H](CCC(=O)O)C(=O)N[C@@H](Cc1c[nH]c2ccccc12)C(=O)N[C@@H](CC(C)C)C(=O)N[C@@H](CCCCN)C(=O)N[C@@H](C)C(=O)N[C@H](C)C(=O)NCC(=O)N1CCC[C@H]1C(=O)N1CCC[C@H]1C(=O)N[C@@H](CO)C(=O)NC(C)(C)C(=O)N[C@@H](CCCCN)C(=O)N1CCC[C@H]1C(=O)N1CCC[C@H]1C(=O)N1CCC[C@H]1C(=O)N[C@@H](CCCCN)C(N)=O)[C@@H](C)CC)C(=O)O)C(=O)O [SEQ ID NO: 11, H-Aib-H-G-T-F-T-S-D-L-S-K-L-K[gGlu-gGlu-Palm]-E-E-Q-R-Q-Aib-E-F-I-E-W-L-K-A-dAla-G-P-P-S-Aib-K-P-P-P-K-NH2] (H-H[Aib]HGTFTSDLSKLK([γGlu-γGlu-Palmitoyl])EEQRQ[Aib]EFIEWLKA[dA]GPPS[Aib]KPPPK-NH2)
3 | 2.1 | −0.3 | 2.8 | 2.5 |  | CCCCCCCCCCCCCCCC(=O)N[C@@H](CCC(=O)N[C@@H](CCC(=O)NCCCC[C@H](NC(=O)[C@H](CC(C)C)NC(=O)[C@H](CCCCN)NC(=O)[C@H](CO)NC(=O)[C@H](CC(C)C)NC(=O)[C@H](CC(=O)O)NC(=O)[C@H](CO)NC(=O)[C@@H](NC(=O)[C@H](Cc1ccccc1)NC(=O)[C@@H](NC(=O)CNC(=O)[C@H](Cc1c[nH]cn1)NC(=O)C(C)(C)NC(=O)[C@@H](N)Cc1c[nH]cn1)[C@@H](C)O)[C@@H](C)O)C(=O)N[C@@H](CCC(=O)O)C(=O)N[C@@H](CCC(=O)O)C(=O)N[C@@H](CCC(N)=O)C(=O)N[C@@H](CCCNC(=N)N)C(=O)N[C@@H](CCC(N)=O)C(=O)NC(C)(C)C(=O)N[C@@H](CCC(=O)O)C(=O)N[C@@H](Cc1ccccc1)C(=O)N[C@H](C(=O)N[C@@H](CCC(=O)O)C(=O)N[C@@H](Cc1c[nH]c2ccccc12)C(=O)N[C@@H](CC(C)C)C(=O)N[C@@H](CCCCN)C(=O)N[C@@H](C)C(=O)N[C@H](C)C(=O)NCC(=O)N[C@@H](Cc1c[nH]cn1)C(=O)N1CCC[C@H]1C(=O)N[C@@H](CO)C(=O)NC(C)(C)C(=O)N[C@@H](CCCCN)C(=O)N1CCC[C@H]1C(=O)N1CCC[C@H]1C(=O)N1CCC[C@H]1C(=O)N[C@@H](CCCCN)C(N)=O)[C@@H](C)CC)C(=O)O)C(=O)O [SEQ ID NO: 13, H-Aib-H-G-T-F-T-S-D-L-S-K-L-K[gGlu-gGlu-Palm]-E-E-Q-R-Q-Aib-E-F-I-E-W-L-K-A-dAla-G-H-P-S-Aib-K-P-P-P-K-NH2] (H-H[Aib]HGTFTSDLSKLK([γGlu-γGlu-Palmitoyl])EEQRQ[Aib]EFIEWLKA[dA]GHPS[Aib]KPPPK-NH2)
